Counter-ions that a name gives are not always drawn.
Assays:
[1] = Metabolites in serum and urine of dosed rats (LC-MS); assay type: in vivo; conditions: rats, dosed orally
Method: Oxadiazoles disclosed herein as well as other oxadiazoles were investigated to determine the formation of metabolites. Animals were dosed, blood taken, serum prepared, serum proteins precipitated and ultrafiltrates prepared as described in Example 6. In separate experiments, urine was collected from rats for 16-24 hours after dosing, using standard metabolic cages. The urine container and collected urine were maintained at 4° C. Urine was lyophilized, taken back into water. The uftrafiltrate was prepared by adding formic acid to a final concentration of 1% to the urine samples, then filtered through a 0.2 um nylon membrane. The ultrafiltrate was subjected to LC-MS analysis. Instead of measuring the product ions in Q3, manual Q1 scans of the liquid chromatograph were undertaken, seeking parent ions of potential metabolites of the compounds. The criteria for identifying metabolites were as follows: (1) the ion should be present in the sera or urines of dosed rats, but not in sera or urines from non-dosed rats (2) the ion should be identifiable as a metabolic derivative of the dosed compound (e.g. loss of a functional chemical moiety, addition of a hydroxyl group or a glucuronic acid moiety, etc). Metabolites were determined not to be present if no compound meeting the above criteria could be detected in serum or urine.

[2] = test system: pooled male human liver microsomes; test: Metabolism by human liver microsomes, Example 33; assay type: in vitro ADME; conditions: 6 hours incubation (FIGS. 4A, 4B)
Method: Compounds were incubated with pooled male human liver microsomes (BD Biosciences, #452172) and an NADP-regenerating system in a phosphate buffer (pH 7.4) for a total of 6 hours. Aliquots were removed every 2 hours, and 1% formic acid was added to halt the reaction. Samples were centrifuged, filtered through 0.2 micron spinfilter and the amount of each compound in the supernatants was quantitated using LC/MS/MS.

[3] = target: T1, human muscarinic M3 receptors (Homo sapiens, UniProt P20309); test: IP production in A9L cells with human M3 receptors (IPOne TR-FRET), Example 28; assay type: cell-based; conditions: for huM3/A9L Smax: percentage of maximal stimulation by carbachol; for huM3/A9L ED50 relative to CCh*: potency relative to carbachol at its EC50, semi-quantitative
T1 construct: host or cells: A9L cells
T1 sequence (P20309 whole entry): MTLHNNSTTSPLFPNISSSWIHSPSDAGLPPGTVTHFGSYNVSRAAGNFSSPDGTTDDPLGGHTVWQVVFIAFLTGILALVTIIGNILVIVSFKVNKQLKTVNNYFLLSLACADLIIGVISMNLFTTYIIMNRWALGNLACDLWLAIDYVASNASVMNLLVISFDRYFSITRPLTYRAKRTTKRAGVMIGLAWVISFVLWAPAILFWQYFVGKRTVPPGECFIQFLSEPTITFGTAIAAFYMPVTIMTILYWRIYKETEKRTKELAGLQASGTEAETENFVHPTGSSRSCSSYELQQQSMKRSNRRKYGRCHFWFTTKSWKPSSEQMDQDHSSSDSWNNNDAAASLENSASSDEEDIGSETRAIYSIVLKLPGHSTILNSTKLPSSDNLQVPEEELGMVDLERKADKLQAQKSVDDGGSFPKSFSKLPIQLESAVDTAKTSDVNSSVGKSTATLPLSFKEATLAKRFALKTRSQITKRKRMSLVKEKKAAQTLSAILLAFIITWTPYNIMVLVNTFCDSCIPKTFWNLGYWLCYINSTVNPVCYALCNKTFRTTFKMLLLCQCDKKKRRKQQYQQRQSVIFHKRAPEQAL
Method in brief: (§1)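 A9L cells transfected with human M1 or M3 receptors, exposed to compound in medium with 10 mM LiCl and 10 mM HEPES (pH 7.4) for 60 min at 37 °C. IP in lysates measured by IPOne TR-FRET; efficacy expressed relative to full agonist (100%).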

human FMO1 Supersomes = target: T2, human FMO1 Supersomes (Homo sapiens, UniProt Q01740); test: Metabolism by flavin monoxygenase 1 (FMO1) Supersomes; assay type: in vitro ADME; conditions: after 6 hours (FIG. 2)
T2 construct: purchased BD Biosciences 456241
T2 sequence (Q01740 1-532): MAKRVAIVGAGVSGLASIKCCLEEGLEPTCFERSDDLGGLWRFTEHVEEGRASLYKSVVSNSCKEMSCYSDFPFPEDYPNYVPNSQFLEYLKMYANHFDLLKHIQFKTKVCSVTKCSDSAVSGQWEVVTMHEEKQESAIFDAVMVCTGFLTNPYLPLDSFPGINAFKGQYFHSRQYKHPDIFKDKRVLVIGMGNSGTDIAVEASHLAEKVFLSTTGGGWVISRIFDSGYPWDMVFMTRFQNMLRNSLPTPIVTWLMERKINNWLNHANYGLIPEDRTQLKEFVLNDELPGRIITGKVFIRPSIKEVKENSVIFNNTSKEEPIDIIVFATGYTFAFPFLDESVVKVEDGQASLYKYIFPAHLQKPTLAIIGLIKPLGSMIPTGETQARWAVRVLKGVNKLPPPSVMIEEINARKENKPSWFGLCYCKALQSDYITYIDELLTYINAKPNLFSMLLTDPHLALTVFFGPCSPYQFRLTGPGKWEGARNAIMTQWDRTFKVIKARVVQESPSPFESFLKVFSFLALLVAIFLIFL
Method: […] Aliquots were removed every 10 minutes, and 1% formic acid was added to halt the reaction. Samples were centrifuged, filtered through 0.2 micron spinfilter and the amount of each compound in the supernatants was quantitated using LC/MS/MS.

[4] = Blood and brain concentrations (rats), oral gavage; assay type: in vivo, Long-Evans Hooded rats; conditions: rats, oral dosing
Method: Long-Evans Hooded rats (Charles River: male, 250-350 g) were dosed with solutions of test compounds in PBS by oral gavage. At the desired time after dosing, the animals were anesthetized with isoflurane, and then euthanized by cervical dislocation. Blood was obtained by cardiac puncture, transferred to a 1.5 mL microcentrifuge tube containing 15U Heparin, and the plasma recovered after centrifugation. Brains were dissected, weighed, immediately chilled to 4° C., and homogenized using a PowerGen 125 homogenizer in five volumes of ice-cold 2% formic acid. Proteins were precipitated from plasma and brain homogenate with two and five volumes respectively of ice-cold 2% formic acid and clarified by centrifugation. The supernatant was ultra-filtered by centrifugation through a 3K MWCO spin column (Pall Life Sciences), following the manufacturer's instructions. The concentration of compound in the ultra-filtrate was subjected to reverse-phase liquid chromatography using a 150×2.1 mm Agilent C8 reverse-phase column on a Shimadzu Prominence LC, eluting the compounds with a gradient of 2% to 50% of acetonitrile+0.1% formic acid for compound MI-50,382, or an isocratic flow of 2% acetonitrile+0.1% formic acid for the rest of the compounds listed. The concentration of the compound in the column effluent was measured using an Applied Biosystems API-3200 triple quadrupole mass spectrometer equipped with an electrospray sample injection system. The counts of the characteristic parent and product ions of each test compound were converted to concentration units by comparison with a standard calibration curve.

[5] = target: T3, human muscarinic M1 receptors (Homo sapiens, UniProt P11229); test: IP production in A9L cells with human M1 receptors (IPOne TR-FRET), Example 28; assay type: cell-based; conditions: for huM1/A9L Smax: percentage of maximal stimulation by carbachol; for huM1/A9L ED50 relative to CCh*: potency relative to carbachol at its EC50, semi-quantitative
T3 construct: host or cells: A9L cells
T3 sequence (P11229 1-460): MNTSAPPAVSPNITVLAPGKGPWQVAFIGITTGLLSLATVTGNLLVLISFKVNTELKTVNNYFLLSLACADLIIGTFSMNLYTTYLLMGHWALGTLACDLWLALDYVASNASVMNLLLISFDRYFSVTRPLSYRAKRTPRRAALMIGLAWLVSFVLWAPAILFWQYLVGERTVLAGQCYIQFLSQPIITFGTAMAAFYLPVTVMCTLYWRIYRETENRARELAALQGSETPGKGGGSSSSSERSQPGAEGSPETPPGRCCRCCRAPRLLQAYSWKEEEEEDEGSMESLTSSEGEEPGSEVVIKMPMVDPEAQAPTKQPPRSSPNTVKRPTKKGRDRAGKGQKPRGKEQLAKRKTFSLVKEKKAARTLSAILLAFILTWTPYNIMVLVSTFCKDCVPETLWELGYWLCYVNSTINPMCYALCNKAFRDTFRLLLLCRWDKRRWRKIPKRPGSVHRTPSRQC
Method in brief: as §1

rats = test: In vivo muscarinic effects in rats after oral dosing
From the text: In these respects it was essentially the same as compound 3.

[6] = test system: A-beta 1-40 and A-beta 1-42; test: A-beta in hippocampal microdialysate of transgenic mice; assay type: in vivo, Tg-2576 transgenic mice; conditions: Tg-2576 mice, single dose (FIG. 14)
From the text: These mice have high concentrations of A-beta in their brain tissue, thought to be the cause of neuron death in Alzheimer's disease, and accumulate amyloid plaques, recapitulating one of the hallmark pathological features of Alzheimer's disease.

in vitro [7] = conditions: PAMPA
anesthetized normal rats = test: In vivo measurement of salivation; set-up: species or system Long Evans Hooded rats; conditions: anesthetized normal rats, dose-dependent between about 0.1 mg/kg and 1 mg/kg (FIG. 11)
Method: Suitable doses of test compounds or drug substances were administered using standard techniques to Long Evans Hooded rats weighing 225 to 350 grams, or CD-1 mice weighing 30 to 50 grams, which had been anesthetized using 2-3.5%% of isoflurane in oxygen. The animals were placed slightly head-down on an inclined, heated ramp. Rectal temperature was monitored using a thermocouple and the temperature of the heating pad was adjusted manually to maintain normal body temperature. Saliva was collected from the mouth by absorption onto pre-weighed slips of filter paper. The filter paper was changed periodically and the amount of saliva was measured by weighing the filter paper slips

[8] = test system: hippocampal inositol phosphate; test: In vivo tissue inositol phosphate signaling pathway activation, hippocampus; set-up: species or system Long Evans Hooded rats; conditions: normal rats, dose-dependent 0.03 mg/kg to at least 3 mg/kg (FIG. 10A)
Method: Experimental compounds or drug substances were administered using standard techniques to Long Evans Hooded rats weighing 225 to 350 grams, and which had been pretreated with a subcutaneous injection of lithium chloride at a suitable dose between 3 and 10 mmoles per kg. At suitable times the animals were briefly anesthetized using 5% isoflurane and euthanized by decapitation. The brains and submaxillary salivary glands were rapidly dissected out, and the hippocampuses were dissected from the brains. The dissected tissues were homogenized in a suitable volume of ice-cold phosphate-buffered saline containing 10 mM lithium chloride, pH7.4, using a tissue homogenizer, and used immediately or frozen in aliquots at −80 deg C. for future use. The concentration of inositol-1-phosphate was determined in the homogenates using the IPOne TR-FRET assay (CisBio cat no 621PAPEB), following the manufacturer's instruction

CD-I mice = test: Apomorphine induced climbing model of psychosis; assay type: in vivo
Method: As described in Costall et. al. European Journal of Pharmacology 1978, 50, 39. individual CD-I mice, 1-2 months old, were placed in a cylindrical wire mesh cage (13.2 cm high×13.2 cm diameter) constructed of steel wire 1 mm thick spaced at 1.2 cm^2. Cylinders were placed in a standard OptiMICE mouse cage (29×32×9×29 cm and 14 cm high) with adequate wood chip bedding provided. Observations of climbing (defined as 3 or more paws of the ground) were carried out every 5 minutes at a duration of 1 minute for […]. Animals were injected subcutaneously under isoflurane anesthesia with test compounds, reference compounds, which included clozapine, haloperidol, olanzapine and xanomeline, or PBS as a control. This was followed 5 minutes later by 2 mg/kg apomorphine hydrochloride. All drugs were dissolved in PBS or a mixture of (by volume) 96% PBS and 4% hydroxypropyl-beta-cyclodextrin, and dosed at a rate of 5 ml per kilogram of body weight. Following injections, animals were replaced in the mesh cages and observed for climbing (defined as 3 or more paws off the ground) every 5 minutes for 1 minute for 60 minutes after dosing.

rat M3 receptors = target: T4, rat M3 receptors (Rattus norvegicus, UniProt P08483); test: PI turnover (inositol phosphate production) in M3-CHO cells; assay type: cell-based; conditions: mean Smax relative to carbachol (100.0); CHO cells expressing rat M3
T4 construct: host or cells: CHO (M3-CHO)
T4 sequence (P08483 whole entry): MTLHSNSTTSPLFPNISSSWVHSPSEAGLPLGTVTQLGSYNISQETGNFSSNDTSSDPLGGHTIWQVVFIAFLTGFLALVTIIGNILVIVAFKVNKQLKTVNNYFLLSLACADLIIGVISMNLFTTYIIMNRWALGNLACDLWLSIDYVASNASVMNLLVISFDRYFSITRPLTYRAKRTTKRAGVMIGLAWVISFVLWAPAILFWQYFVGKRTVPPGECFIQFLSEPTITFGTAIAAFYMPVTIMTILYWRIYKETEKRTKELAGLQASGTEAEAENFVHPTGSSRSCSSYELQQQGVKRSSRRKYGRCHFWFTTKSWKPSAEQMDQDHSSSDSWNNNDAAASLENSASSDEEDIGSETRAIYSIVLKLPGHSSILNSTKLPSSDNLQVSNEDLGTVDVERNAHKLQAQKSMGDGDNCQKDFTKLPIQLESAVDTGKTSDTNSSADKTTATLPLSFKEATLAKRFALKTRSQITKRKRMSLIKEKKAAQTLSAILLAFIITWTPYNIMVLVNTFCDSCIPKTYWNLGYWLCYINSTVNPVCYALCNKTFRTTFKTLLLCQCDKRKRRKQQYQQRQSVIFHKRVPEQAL
Method: The medium was changed to 70 μL/well of inositol-free DMEM containing 2 mM glutamine, 10% FBS and 10 μCi/ml of [3H]-inositol (PE:cat # NET114A250UC), incubated overnight as above, then 100 μL of a solution of the test compound in HBSS containing 10 mM LiCl and 20 mM HEPES, pH 7.4 was added, incubation was continued for 60 min under the above conditions, and the test was stopped by removing the test compound and replacing with 100 μL of 50 mM formic acid in water at 4° C. […] The compounds in Table 1 are all dihydropyrimidine-oxadiazoles which vary only at the oxadiazole side chain.

in vitro [9] = assay type: in vitro ADME; conditions: PAMPA, pH 7.4, PAMPA Permeability Coefficient (×10^6)
Method in brief: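 Compounds at 400 μM in 100 mM phosphate buffer pH 7.4 diffused through a filter pre-wetted with 20 mg/mL porcine brain polar lipid extract in dodecane into matching buffer, 24 h at room temperature. Donor, acceptor and stock samples were acidified with 1% TFA, quantified by LC/UV, and passive diffusion rates calculated from peak areas.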

[10] = mice, sc, apomorphine 2 mg/kg (FIG. 1)

Q: Which results are given for `[2H]C([2H])([2H])c1noc(C2CCCNC2)n1` (stereo not drawn) [Compound 7, 3-D3-Methyl-5-(piperidin-3-yl)-1,2,4-oxadiazole]?
A: metabolites identified in plasma or urine [1]: No metabolites were identified; metabolism in human liver microsomes (in words) [2]: metabolized significantly less in human liver microsomes than in rat liver microsomes; huM3/A9L Smax [3]: 60%; huM3/A9L ED50 relative to CCh* [3]: +/− (+/− potency 0.5-2x CCh); extent of metabolism in FMO Supersomes (in words) (human FMO1 Supersomes): less than half metabolized; penetration into the brain after oral dosing [4]: penetrated into the brain; plasma concentrations relative to compound 1 after oral dosing ([4]; versus compound 1): approximately 2.4 times; huM1/A9L Smax [5]: 116%; huM1/A9L ED50 relative to CCh* [5]: + (+ potency 2-10x CCh); muscarinic agonist activity in vivo (rats; in vivo): demonstrated muscarinic agonist activity in vivo

Q: Which results are given for `Cc1noc(C2CCCNC2)n1` (racemic) [Compound 3, 3-Methyl-5-(piperidin-3-yl)-1,2,4-oxadiazole]?
A: reduction of the concentration of A-beta 1-40 in hippocampal microdialysate [6]: approximately 40%; reduction of the concentration of A-beta 1-42 in hippocampal microdialysate [6]: approximately 40%; Papp (in vitro [7]): 2.56 ×10⁻⁶ cm/s; salivation (anesthetized normal rats): causes salivation; metabolism in human liver microsomes (in words) [2]: metabolized significantly less in human liver microsomes than in rat liver microsomes; huM3/A9L Smax [3]: 54%; huM3/A9L ED50 relative to CCh* [3]: +/− (+/− potency 0.5-2x CCh); hippocampal IP response [8]: causes an increase in the hippocampal IP response; Climbing Mean (CD-I mice; Cmpd 3 0.1 mg/kg + APO 2 mg/kg): 8.9 s; Climbing Mean (CD-I mice; Cmpd 3 0.1 mg/kg + APO + N-Methyl Scopolamine 0.3 mg/kg): 12.3 s; Climbing Mean (CD-I mice; Cmpd 3 0.1 mg/kg + APO + scopolamine 0.3 mg/kg): 47.0 s; activity in the apomorphine induced climbing model (CD-I mice; [10]): highly active and highly potent; potency in inhibiting climbing compared with haloperidol (CD-I mice; [10]): equipotent to haloperidol; extent of metabolism in FMO Supersomes (in words) (human FMO1 Supersomes): less than half metabolized; huM1/A9L Smax [5]: 108%; huM1/A9L ED50 relative to CCh* [5]: + (+ potency 2-10x CCh)

Q: For `[2H]C([2H])([2H])c1noc(C2CN=CNC2)n1` (stereo not drawn) [Compound 4c, 3-(d3-methyl)-5-(1,4,5,6-tetrahydropyrimidin-5-yl)-1,2,4-oxadiazole hydrochloride], which “M3/CHO PI turnover Relative Mean Smax” value (rat M3 receptors) is on record?
A: 92.6

Q: What does the source list for `Clc1cccc(Cl)c1N=C1NCCN1` [Clonidine, reference compound]?
A: Papp (in vitro [9]): 7.66 ×10⁻⁶ cm/s; Papp (in vitro [7]): 7.95 ×10⁻⁶ cm/s

Q: Which “salivary flow after oral dosing” value (rats; rats, dosed orally) does the source give for “3-Methyl-5-(piperidin-3-yl)-1,2,4-oxadiazole [Compound 3]” here?
A: produced copious salivary flow
